In publication PMC10466176, “Sequential analysis for identification of byproduct from N-benzylation reaction: wound healing and anti-inflammatory potential of the byproduct 4-chlorobenzyl 2-((4-chlorobenzyl)amino)benzoate” (RSC Advances, 2023):

Biological target: T1, COX-2 (cyclooxygenase-2) (Homo sapiens, UniProt P35354)
T1 construct: gene PTGS2
T1 sequence (P35354 18-604): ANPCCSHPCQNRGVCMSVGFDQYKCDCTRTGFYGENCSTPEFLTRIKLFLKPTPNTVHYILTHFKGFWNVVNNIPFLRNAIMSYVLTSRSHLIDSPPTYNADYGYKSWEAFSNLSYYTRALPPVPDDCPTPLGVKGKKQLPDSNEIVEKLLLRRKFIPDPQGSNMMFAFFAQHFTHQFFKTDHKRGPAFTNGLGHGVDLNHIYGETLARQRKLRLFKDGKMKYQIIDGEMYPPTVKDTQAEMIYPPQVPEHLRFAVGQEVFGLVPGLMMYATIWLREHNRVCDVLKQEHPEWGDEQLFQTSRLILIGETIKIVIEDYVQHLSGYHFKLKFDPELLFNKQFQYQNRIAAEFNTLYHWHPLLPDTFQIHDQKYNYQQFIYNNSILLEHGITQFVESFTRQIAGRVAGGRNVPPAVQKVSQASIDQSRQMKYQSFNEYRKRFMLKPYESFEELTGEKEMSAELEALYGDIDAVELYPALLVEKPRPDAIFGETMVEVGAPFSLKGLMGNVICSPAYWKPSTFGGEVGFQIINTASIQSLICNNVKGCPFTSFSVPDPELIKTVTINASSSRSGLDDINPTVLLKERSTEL
Experiment: COX-2 enzyme assay with ELISA kit (SEA699Hu)
Type: biochemical

`O=C(OCc1ccc(Cl)cc1)c1ccccc1NCc1ccc(Cl)cc1` [CCAB, 4-chlorobenzyl 2-((4-chlorobenzyl)amino)benzoate] gave an IC50 of 410 nM.
